Experimental data taken from article PMC5398096 (Bioorganic & medicinal chemistry letters, 2017).
Like-named read-outs stand apart in the source and are kept apart here.

Tests used:
E. coli DHFR [1] = target: T1, E. coli DHFR (Escherichia coli, UniProt P0ABQ4); conditions: number in parentheses; at the concentration stated in the same cell (μM); cited from earlier work
COLO-205 xenograft = COLO-205 xenograft mouse model, cited from earlier work
human DHFR = target: T2, human DHFR (Homo sapiens, UniProt P00374); conditions: number in parentheses; at the concentration stated in the same cell (μM); cited from earlier work
T2 sequence (P00374 1-187): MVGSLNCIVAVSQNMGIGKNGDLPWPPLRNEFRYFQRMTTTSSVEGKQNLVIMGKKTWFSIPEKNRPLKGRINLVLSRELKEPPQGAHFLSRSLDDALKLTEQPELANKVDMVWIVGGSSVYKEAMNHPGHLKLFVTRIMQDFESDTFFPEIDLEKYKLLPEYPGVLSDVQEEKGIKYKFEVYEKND

A431 cancer cells [2] = conditions: read-out: A431 Cytotoxicity IC50; previously evaluated lead compounds; cited from earlier work
VEGFR-2 (Flk-1) = VEGFR-2 (Flk-1) (Homo sapiens, UniProt P35968); experiment: VEGFR-2 kinase inhibition, phosphotyrosine ELISA in whole cells; type: cell-based; conditions: for VEGFR-2 assay: fold less potent than semaxanib: relative to standard semaxanib
PDGFR-β = PDGFR-β (Homo sapiens, UniProt P09619); experiment: PDGFR-β kinase inhibition, phosphotyrosine ELISA in whole cells; type: cell-based; conditions: for PDGFR-β assay: fold less active than DMBI: relative to standard DMBI; for PDGFR-β assay: activity in words: even at 200 micromolar concentrations
EGFR = EGFR (Homo sapiens, UniProt P00533); experiment: EGFR kinase inhibition, phosphotyrosine ELISA in whole cells; type: cell-based; conditions: relative to standard 24
A431 cancer cells [3] = experiment: A431 cytotoxicity; type: cell-based, human; conditions: for A431 cytotoxicity assay: fold less active than cisplatin: relative to standard cisplatin
E. coli TS = E. coli TS (Escherichia coli, UniProt P0A884); experiment: Thymidylate synthase; type: biochemical; conditions: number in parentheses; at the concentration stated in the same cell (μM)
human TS = human TS (Homo sapiens, UniProt P04818); experiment: Thymidylate synthase; type: biochemical; conditions: relative to raltitrexed (RTX)
E. coli DHFR [4] = target: T1, E. coli DHFR; experiment: Dihydrofolate reductase; type: biochemical; conditions: number in parentheses; at the concentration stated in the same cell (μM)

human TS, sequence (P04818 whole entry): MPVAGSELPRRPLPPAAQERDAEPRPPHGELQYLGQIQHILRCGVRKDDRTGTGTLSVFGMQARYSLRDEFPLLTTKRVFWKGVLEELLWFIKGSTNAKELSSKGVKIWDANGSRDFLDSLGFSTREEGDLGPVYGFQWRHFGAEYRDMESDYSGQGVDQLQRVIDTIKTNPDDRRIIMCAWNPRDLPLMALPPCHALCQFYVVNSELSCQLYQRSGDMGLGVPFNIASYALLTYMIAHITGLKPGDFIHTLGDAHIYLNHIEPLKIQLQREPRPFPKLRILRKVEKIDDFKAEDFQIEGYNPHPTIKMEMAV
EGFR, sequence (P00533 25-1210): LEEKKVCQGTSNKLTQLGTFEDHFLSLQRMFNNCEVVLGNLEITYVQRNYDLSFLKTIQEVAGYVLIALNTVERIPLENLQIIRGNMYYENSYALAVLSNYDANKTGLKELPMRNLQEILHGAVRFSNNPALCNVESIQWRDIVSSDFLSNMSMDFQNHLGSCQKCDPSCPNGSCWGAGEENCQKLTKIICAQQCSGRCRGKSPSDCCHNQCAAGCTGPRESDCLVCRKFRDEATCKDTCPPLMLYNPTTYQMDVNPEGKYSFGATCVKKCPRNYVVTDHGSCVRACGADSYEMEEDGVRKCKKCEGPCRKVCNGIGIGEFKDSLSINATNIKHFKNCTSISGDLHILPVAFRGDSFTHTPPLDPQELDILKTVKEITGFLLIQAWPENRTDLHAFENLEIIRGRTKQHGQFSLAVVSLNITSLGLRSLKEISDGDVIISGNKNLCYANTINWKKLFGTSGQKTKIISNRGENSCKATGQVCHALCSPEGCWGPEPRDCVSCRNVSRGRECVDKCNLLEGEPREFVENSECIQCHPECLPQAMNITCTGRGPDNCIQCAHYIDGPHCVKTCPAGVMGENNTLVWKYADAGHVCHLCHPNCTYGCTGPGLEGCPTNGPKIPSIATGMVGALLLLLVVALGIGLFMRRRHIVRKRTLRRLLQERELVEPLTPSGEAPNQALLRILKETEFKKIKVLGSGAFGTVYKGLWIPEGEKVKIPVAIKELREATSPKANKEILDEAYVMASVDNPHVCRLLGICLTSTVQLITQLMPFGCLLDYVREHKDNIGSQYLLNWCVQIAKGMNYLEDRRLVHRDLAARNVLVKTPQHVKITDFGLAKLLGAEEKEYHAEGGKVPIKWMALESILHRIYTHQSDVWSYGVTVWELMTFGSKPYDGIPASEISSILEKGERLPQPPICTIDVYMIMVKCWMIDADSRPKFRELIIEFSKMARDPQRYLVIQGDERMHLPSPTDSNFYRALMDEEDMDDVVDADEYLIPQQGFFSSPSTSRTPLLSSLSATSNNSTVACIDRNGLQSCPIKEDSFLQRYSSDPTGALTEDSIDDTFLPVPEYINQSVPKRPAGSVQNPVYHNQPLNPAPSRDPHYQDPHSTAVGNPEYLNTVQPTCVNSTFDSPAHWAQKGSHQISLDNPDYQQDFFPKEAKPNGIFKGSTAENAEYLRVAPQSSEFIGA
PDGFR-β, sequence (P09619 33-1106): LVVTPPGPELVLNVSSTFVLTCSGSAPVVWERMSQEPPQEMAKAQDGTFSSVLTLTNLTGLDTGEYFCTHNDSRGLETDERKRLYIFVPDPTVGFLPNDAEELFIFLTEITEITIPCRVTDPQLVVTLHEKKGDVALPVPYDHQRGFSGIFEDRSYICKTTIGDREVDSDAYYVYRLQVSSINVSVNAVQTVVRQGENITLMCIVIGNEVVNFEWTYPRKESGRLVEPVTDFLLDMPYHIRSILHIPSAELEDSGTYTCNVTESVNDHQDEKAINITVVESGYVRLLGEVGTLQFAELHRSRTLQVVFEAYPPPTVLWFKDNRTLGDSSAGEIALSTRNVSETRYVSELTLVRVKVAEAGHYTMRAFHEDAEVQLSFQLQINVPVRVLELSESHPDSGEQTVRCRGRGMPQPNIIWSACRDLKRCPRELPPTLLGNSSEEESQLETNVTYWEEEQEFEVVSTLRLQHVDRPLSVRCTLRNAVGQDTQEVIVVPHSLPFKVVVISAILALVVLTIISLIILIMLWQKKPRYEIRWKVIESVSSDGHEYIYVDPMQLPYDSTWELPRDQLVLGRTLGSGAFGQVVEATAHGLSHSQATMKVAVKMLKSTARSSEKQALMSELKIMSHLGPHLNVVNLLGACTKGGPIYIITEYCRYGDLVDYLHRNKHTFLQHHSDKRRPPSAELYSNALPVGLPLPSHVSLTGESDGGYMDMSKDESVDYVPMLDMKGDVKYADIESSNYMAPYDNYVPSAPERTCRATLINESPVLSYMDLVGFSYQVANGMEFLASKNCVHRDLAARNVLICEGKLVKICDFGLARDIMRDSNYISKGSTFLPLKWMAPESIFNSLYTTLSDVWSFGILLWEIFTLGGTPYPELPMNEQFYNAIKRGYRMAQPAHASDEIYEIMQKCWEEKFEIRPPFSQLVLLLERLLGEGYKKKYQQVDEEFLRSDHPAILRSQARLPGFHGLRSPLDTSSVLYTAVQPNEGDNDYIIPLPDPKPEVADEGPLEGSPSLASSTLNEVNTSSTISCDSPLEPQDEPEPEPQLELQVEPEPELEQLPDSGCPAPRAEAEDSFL
VEGFR-2 (Flk-1), sequence (P35968 20-1356): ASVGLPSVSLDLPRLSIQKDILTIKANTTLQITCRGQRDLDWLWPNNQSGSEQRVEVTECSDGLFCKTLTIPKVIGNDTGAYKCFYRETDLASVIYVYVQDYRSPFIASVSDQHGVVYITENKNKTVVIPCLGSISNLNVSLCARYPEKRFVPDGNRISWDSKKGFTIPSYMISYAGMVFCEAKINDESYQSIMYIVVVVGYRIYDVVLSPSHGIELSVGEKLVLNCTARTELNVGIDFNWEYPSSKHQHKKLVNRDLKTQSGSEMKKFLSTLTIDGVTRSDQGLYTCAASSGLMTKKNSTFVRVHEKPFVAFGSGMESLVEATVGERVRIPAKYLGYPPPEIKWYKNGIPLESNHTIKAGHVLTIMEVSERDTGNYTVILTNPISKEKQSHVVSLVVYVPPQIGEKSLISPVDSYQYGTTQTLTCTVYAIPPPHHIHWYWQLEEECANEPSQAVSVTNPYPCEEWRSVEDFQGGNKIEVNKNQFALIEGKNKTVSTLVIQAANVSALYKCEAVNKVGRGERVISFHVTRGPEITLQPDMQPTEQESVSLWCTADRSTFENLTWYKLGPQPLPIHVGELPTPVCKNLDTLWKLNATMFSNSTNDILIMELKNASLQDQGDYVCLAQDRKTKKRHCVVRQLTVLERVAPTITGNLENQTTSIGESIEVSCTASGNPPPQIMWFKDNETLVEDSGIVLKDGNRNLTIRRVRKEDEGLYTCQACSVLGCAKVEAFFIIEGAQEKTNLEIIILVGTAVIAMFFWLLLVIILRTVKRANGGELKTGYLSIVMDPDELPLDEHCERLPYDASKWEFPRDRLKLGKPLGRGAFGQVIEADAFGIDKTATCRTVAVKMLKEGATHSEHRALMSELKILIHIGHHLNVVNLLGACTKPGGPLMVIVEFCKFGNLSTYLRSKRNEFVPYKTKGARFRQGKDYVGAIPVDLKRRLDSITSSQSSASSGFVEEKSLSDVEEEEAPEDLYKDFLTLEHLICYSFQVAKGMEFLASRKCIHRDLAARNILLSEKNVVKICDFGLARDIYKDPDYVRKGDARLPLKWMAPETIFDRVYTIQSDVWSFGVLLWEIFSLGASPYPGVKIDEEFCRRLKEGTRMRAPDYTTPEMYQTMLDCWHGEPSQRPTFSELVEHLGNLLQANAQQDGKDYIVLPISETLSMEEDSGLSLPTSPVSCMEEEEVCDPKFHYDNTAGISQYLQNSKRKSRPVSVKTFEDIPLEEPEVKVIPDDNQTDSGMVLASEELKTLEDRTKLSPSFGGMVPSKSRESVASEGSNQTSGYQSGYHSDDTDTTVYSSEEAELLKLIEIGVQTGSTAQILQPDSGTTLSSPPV
T1 sequence (P0ABQ4 whole entry): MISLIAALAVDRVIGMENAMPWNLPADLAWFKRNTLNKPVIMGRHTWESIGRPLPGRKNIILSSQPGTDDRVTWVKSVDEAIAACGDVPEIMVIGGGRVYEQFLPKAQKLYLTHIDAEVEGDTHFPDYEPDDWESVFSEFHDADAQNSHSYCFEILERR
E. coli TS, sequence (P0A884 whole entry): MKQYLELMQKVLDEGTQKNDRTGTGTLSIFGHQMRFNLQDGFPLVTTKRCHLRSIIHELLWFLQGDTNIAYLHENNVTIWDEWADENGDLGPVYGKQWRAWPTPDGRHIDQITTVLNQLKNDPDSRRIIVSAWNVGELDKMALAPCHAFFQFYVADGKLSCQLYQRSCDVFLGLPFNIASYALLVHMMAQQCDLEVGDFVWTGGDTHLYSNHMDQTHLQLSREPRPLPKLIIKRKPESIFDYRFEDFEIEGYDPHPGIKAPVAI

SMILES: Nc1nc(N)c2c(n1)[nH]c1cccc(Sc3ccccc3)c12 [Compound 1]
- DHFR E. coli, percent inhibition at the stated concentration (E. coli DHFR [1]): 35%
- tumor growth inhibition (TGI) (COLO-205 xenograft; 35 mg/kg): 76%
- liver metastases (COLO-205 xenograft; compared with DMBI and control): significantly decreased
- tumor blood vessels (COLO-205 xenograft; compared with DMBI and control): significantly decreased
- DHFR Human, percent inhibition at the stated concentration (human DHFR): 17%
- IC50 (A431 cancer cells [2]): 49.2 ± 4.7 µM

SMILES: Cc1ccc(Sc2cccc3[nH]c4nc(N)nc(N)c4c23)cc1 [Compound 2]
- DHFR E. coli, percent inhibition at the stated concentration (E. coli DHFR [1]): 27%
- DHFR Human, percent inhibition at the stated concentration (human DHFR): 7%
- IC50 (A431 cancer cells [2]): 14.1 ± 2 µM

SMILES: Nc1nc(N)c2c(n1)[nH]c1cccc(Sc3ccc4ccccc4c3)c12 [Compound 3]
- VEGFR-2 assay: fold less potent than semaxanib (VEGFR-2 (Flk-1)): 13 fold
- PDGFR-β assay: fold less active than DMBI (PDGFR-β): 24 fold
- EGFR assay: fold less active than standard 24 (EGFR): 100 fold
- A431 cytotoxicity assay: fold less active than cisplatin (A431 cancer cells [3]): about 4 fold
- TS E. coli, percent inhibition at the stated concentration (E. coli TS): 0%

SMILES: Nc1nc(N)c2c(n1)[nH]c1cccc(Sc3cccc4ccccc34)c12 [Compound 4]
- VEGFR-2 assay: fold less potent than semaxanib (VEGFR-2 (Flk-1)): 16 fold
- PDGFR-β assay: fold less active than DMBI (PDGFR-β): about 16 fold
- hTS assay: fold less active than RTX (human TS): 6 fold
- EGFR assay: fold less active than standard 24 (EGFR): 835 fold
- A431 cytotoxicity assay: activity in words (A431 cancer cells [3]; even at 200 micromolar concentration): inactive

SMILES: COc1ccc(OC)c(Sc2cccc3[nH]c4nc(N)nc(N)c4c23)c1 [Compound 5]
- VEGFR-2 assay: fold less potent than semaxanib (VEGFR-2 (Flk-1)): equipotent
- PDGFR-β assay: activity in words (PDGFR-β): inactive
- DHFR E. coli, percent inhibition at the stated concentration (E. coli DHFR [4]): 0%
- hTS assay: fold less active than RTX (human TS): 3 fold
- EGFR assay: fold less active than standard 24 (EGFR): 22 fold
- A431 cytotoxicity assay: fold less active than cisplatin (A431 cancer cells [3]): about 4 fold

SMILES: COc1ccc(Sc2cccc3[nH]c4nc(N)nc(N)c4c23)cc1 [Compound 6]
- VEGFR-2 assay: fold less potent than semaxanib (VEGFR-2 (Flk-1)): 15 fold
- PDGFR-β assay: fold less active than DMBI (PDGFR-β): about 16 fold
- EGFR assay: fold less active than standard 24 (EGFR): about 100 fold
- A431 cytotoxicity assay: fold less active than cisplatin (A431 cancer cells [3]): about 6 fold
- TS E. coli, percent inhibition at the stated concentration (E. coli TS): 0%

SMILES: Nc1nc(N)c2c(n1)[nH]c1cccc(Sc3ccc(Cl)cc3)c12 [Compound 7]
- VEGFR-2 assay: activity in words (VEGFR-2 (Flk-1)): inactive
- PDGFR-β assay: activity in words (PDGFR-β): inactive
- DHFR E. coli, percent inhibition at the stated concentration (E. coli DHFR [4]): 0%
- hTS assay: fold more potent than RTX (human TS): equipotent
- EGFR assay: fold less active than standard 24 (EGFR): 40 fold
- A431 cytotoxicity assay: fold less active than cisplatin (A431 cancer cells [3]): equipotent
